The nature of series [1]: accelerated stability of glutathione (total thiols) in eye drop formulations (UV-VIS with DTNB, 412 nm). In kind it is physicochemical. The settings on record: stored at 40° C. for 30 days. The method, then: (§1) Namely, appropriate amounts of the various components were weighed and then mixed with “Water for Injection” (WFI) at room temperature in a laminar flow hood to achieve the concentrations listed in Table 1. The various components were dissolved in the WFI using a magnetic stir bar and stirring at 350 rpm, or any appropriate mixing speed, until dissolution was complete. The final pH of each formulation was adjusted to pH 3.5 or pH 5.0, as listed in Table 1, using 5N HCl or 5N NaOH, respectively. The resulting solutions were then passed through a 0.21, […] filter while filling sterile vials with the respective formulations for use in stability studies. […]
(§2) At each point in the testing schedule, physical properties, such as clarity, color, odor, particle count and the like, of the formulations stored in the pulled vials were examined by physical observation. Concentrations of the antioxidants were also measured, and analytical tests of the formulations in the vials were carried out according to the protocol listed in Table 3.
(§3) The analytical assay method for stability testing of total thiols and ascorbic acid in eyedrop formulations (UV-VIS in Table 3) are performed as follows. […] Both components are measured on one sample preparation. […] By applying the appropriate dilution and conversion factors, the concentration of each component in the formulation can be calculated. […]

The nature of series [2]: accelerated stability of ascorbic acid in eye drop formulations (UV-VIS, 260 nm). In kind it is physicochemical. The following applies: stored at 40° C. for 30 days; pH 3.5 vs pH 5. The method, then: as §1, §2, §3

In the case of `N[C@@H](CCC(=O)N[C@@H](CS)C(=O)NCC(=O)O)C(=O)O` [glutathione, L-glutathione], the “effect of higher molar ratios of ascorbic acid on glutathione stability” value in series [1] is recorded as “destabilizing effect of higher molar ratios of ascorbic acid on glutathione”.

`O=C1O[C@H]([C@@H](O)CO)C(O)=C1O` [ascorbic acid, L-ascorbic acid]: the “stability of ascorbic acid” value in series [2] was “more stable at the lower pH of 3.5 compared to pH 5”.
